Data reported in patent US20250381198A1 (Melt Pharmaceuticals, Inc., priority 2024, published 2025).

Tests used:
Format in all cases: in vivo, human
[1] = tested on: subjects undergoing cataract extraction with lens replacement (CELR); assay: Phase 3 MELT-300: procedural sedation responders (primary endpoint); settings: for Procedural sedation responder - n: number of subjects
Procedure: Eligible participants were admitted to the study unit on Day 1.
Participants received study medication 30 (+5) minutes, without food or water, before planned surgery start (defined as instillation of topical ocular anesthetic gel (3 drops of chloroprocaine hydrochloride ophthalmic gel)).
The effectiveness of MELT-300 was evaluated after study medication is administered before surgery, in the course of surgery (intraoperatively), and postoperative on Day 1 (end of surgery defined as just prior to drape removal). Efficacy assessments included assessments of sedation, need for rescue medication for sedation, need for rescue medication for pain, and the ability to complete the surgery.
Achievement of the primary endpoint (i.e., procedural sedation) was evaluated. Success for a procedural sedation responder was defined as a subject that achieved the target sedation level (RSS level 2 or 3) by the start of surgery without the need for rescue sedation medication, no requirement for intraoperative sedation medication, and who was able to complete the surgery.
Treatment differences were tested using a Pearson's chi-square test where a p-value<0.05 indicated a difference, with a Fisher's exact test being used instead if any expected values were <5. […] A supportive stratified analysis was performed using the Cochran-Mantel-Haenszel (CMH) row-mean score test to stratify by site grouping.
This sensitivity analysis utilized the last observation (collected after study drug administration) carried forward method for imputing missing preoperative RSS scores just prior to the start of surgery.

[2] = tested on: subjects undergoing cataract extraction with lens replacement (CELR); assay: Phase 3: intraoperative supplemental analgesia; settings: intention-to-treat analysis set
[3] = tested on: subjects undergoing cataract extraction with lens replacement (CELR); assay: Phase 3: Ramsay sedation scale (RSS) scores; settings: ITT analysis set
Description: The RSS scores are summarized for: the baseline, just prior to the start of surgery, the minimum and maximum preoperative score, the minimum and maximum intraoperative score, the minimum and maximum postoperative score, and the maximum overall score.

[4] = Just prior to the start of surgery

Cc1ncc2n1-c1ccc(Cl)cc1C(c1ccccc1F)=NC2 [Midazolam, 8-chloro-6-(2-fluorophenyl)-1-methyl-4H-imidazo[1,5-a][1,4]benzodiazepine]
Procedural sedation responder - % ([1]; All-Treated Analysis Set): 65.2%
Procedural sedation responder - n ([1]; All-Treated Analysis Set): 58
Procedural sedation responder - % ([1]; ITT Analysis Set): 65.2%
Procedural sedation responder - n ([1]; ITT Analysis Set): 58
Procedural sedation responders (achieved target sedation) ([1]; ITT analysis set, MELT-300 or 3 mg midazolam sublingual tablet before CELR): 65.2%
Procedural sedation responder - % ([1]; PP Analysis Set): 65.2%
Procedural sedation responder - n ([1]; PP Analysis Set): 58
Subjects who received intraoperative supplemental analgesia [2]: 1.1%
Ramsay sedation scale score 1, number of subjects ([3]; Baseline): 89
Ramsay sedation scale score 1, percent of subjects (in parentheses) ([3]; Baseline): (100.0)
Ramsay sedation scale score 2-3, number of subjects ([3]; Baseline): 0
Ramsay sedation scale score 4, number of subjects ([3]; Baseline): 0
Ramsay sedation scale score 5+, number of subjects ([3]; Baseline): 0
Ramsay sedation scale: Prior rescue sedation medication given, number of subjects ([3]; Baseline): 0
Ramsay sedation scale score 1, number of subjects [3, 4]: 7
Ramsay sedation scale score 1, percent of subjects (in parentheses) [3, 4]: (7.9)
Ramsay sedation scale score 2-3, number of subjects [3, 4]: 65
Ramsay sedation scale score 2-3, percent of subjects (in parentheses) [3, 4]: (73.0)
Ramsay sedation scale score 4, number of subjects [3, 4]: 0
Ramsay sedation scale score 5+, number of subjects [3, 4]: 0
Ramsay sedation scale: Prior rescue sedation medication given, number of subjects [3, 4]: 17
Ramsay sedation scale: Prior rescue sedation medication given, percent of subjects (in parentheses) [3, 4]: (19.1)
Ramsay sedation scale score 1, number of subjects ([3]; Maximum intraoperative score): 4
Ramsay sedation scale score 1, percent of subjects (in parentheses) ([3]; Maximum intraoperative score): (4.5)
Ramsay sedation scale score 2-3, number of subjects ([3]; Maximum intraoperative score): 60
Ramsay sedation scale score 2-3, percent of subjects (in parentheses) ([3]; Maximum intraoperative score): (67.4)
Ramsay sedation scale score 4, number of subjects ([3]; Maximum intraoperative score): 0
Ramsay sedation scale score 5+, number of subjects ([3]; Maximum intraoperative score): 0
Ramsay sedation scale: Prior rescue sedation medication given, number of subjects ([3]; Maximum intraoperative score): 25
Ramsay sedation scale: Prior rescue sedation medication given, percent of subjects (in parentheses) ([3]; Maximum intraoperative score): (28.1)
Ramsay sedation scale score 1, number of subjects ([3]; Maximum postoperative score): 45
Ramsay sedation scale score 1, percent of subjects (in parentheses) ([3]; Maximum postoperative score): (50.6)
Ramsay sedation scale score 2-3, number of subjects ([3]; Maximum postoperative score): 14
Ramsay sedation scale score 2-3, percent of subjects (in parentheses) ([3]; Maximum postoperative score): (15.7)
Ramsay sedation scale score 4, number of subjects ([3]; Maximum postoperative score): 0
Ramsay sedation scale score 5+, number of subjects ([3]; Maximum postoperative score): 0
Ramsay sedation scale: Prior rescue sedation medication given, number of subjects ([3]; Maximum postoperative score): 29
Ramsay sedation scale: Prior rescue sedation medication given, percent of subjects (in parentheses) ([3]; Maximum postoperative score): (32.6)
Ramsay sedation scale score 1, number of subjects ([3]; Maximum preoperative score): 22
Ramsay sedation scale score 1, percent of subjects (in parentheses) ([3]; Maximum preoperative score): (24.7)
Ramsay sedation scale score 2-3, number of subjects ([3]; Maximum preoperative score): 67
Ramsay sedation scale score 2-3, percent of subjects (in parentheses) ([3]; Maximum preoperative score): (75.3)
Ramsay sedation scale score 4, number of subjects ([3]; Maximum preoperative score): 0
Ramsay sedation scale score 5+, number of subjects ([3]; Maximum preoperative score): 0
Ramsay sedation scale: Prior rescue sedation medication given, number of subjects ([3]; Maximum preoperative score): 0
Ramsay sedation scale score 1, number of subjects ([3]; Maximum score overall): 22
Ramsay sedation scale score 1, percent of subjects (in parentheses) ([3]; Maximum score overall): (24.7)
Ramsay sedation scale score 2-3, number of subjects ([3]; Maximum score overall): 67
Ramsay sedation scale score 2-3, percent of subjects (in parentheses) ([3]; Maximum score overall): (75.3)
Ramsay sedation scale score 4, number of subjects ([3]; Maximum score overall): 0
Ramsay sedation scale score 5+, number of subjects ([3]; Maximum score overall): 0
Ramsay sedation scale: Prior rescue sedation medication given, number of subjects ([3]; Maximum score overall): 0
Ramsay sedation scale score 1, number of subjects ([3]; Minimum intraoperative score): 4
Ramsay sedation scale score 1, percent of subjects (in parentheses) ([3]; Minimum intraoperative score): (4.5)
Ramsay sedation scale score 2-3, number of subjects ([3]; Minimum intraoperative score): 60
Ramsay sedation scale score 2-3, percent of subjects (in parentheses) ([3]; Minimum intraoperative score): (67.4)
Ramsay sedation scale score 4, number of subjects ([3]; Minimum intraoperative score): 0
Ramsay sedation scale score 5+, number of subjects ([3]; Minimum intraoperative score): 0
Ramsay sedation scale: Prior rescue sedation medication given, number of subjects ([3]; Minimum intraoperative score): 25
Ramsay sedation scale: Prior rescue sedation medication given, percent of subjects (in parentheses) ([3]; Minimum intraoperative score): (28.1)
Ramsay sedation scale score 1, number of subjects ([3]; Minimum postoperative score): 49
Ramsay sedation scale score 1, percent of subjects (in parentheses) ([3]; Minimum postoperative score): (55.1)
Ramsay sedation scale score 2-3, number of subjects ([3]; Minimum postoperative score): 10
Ramsay sedation scale score 2-3, percent of subjects (in parentheses) ([3]; Minimum postoperative score): (11.2)
Ramsay sedation scale score 4, number of subjects ([3]; Minimum postoperative score): 0
Ramsay sedation scale score 5+, number of subjects ([3]; Minimum postoperative score): 0
Ramsay sedation scale: Prior rescue sedation medication given, number of subjects ([3]; Minimum postoperative score): 29
Ramsay sedation scale: Prior rescue sedation medication given, percent of subjects (in parentheses) ([3]; Minimum postoperative score): (32.6)
